Data on one molecule can be found in US20190091174A1, “METHOD OF REDUCING SEIZURE TYPE E[…] A DRAVET PATIENT” (ZOGENIX INTERNATIONAL LIMITED, priority 2017, published 2019).

Data set [1] concerns patients with Dravet syndrome. Put plainly: Study 1 (ZX008-1501/1502): Phase 3, double-blind, placebo-controlled, liquid fenfluramine formulation added to current antiepileptic drugs. It counts as in vivo, human. The settings on record: end of the T+M Period. On the procedure: The first 119 subjects to be randomized in both identical studies combined were analyzed and reported as Study 1 (FIG. 1), covered by a Statistical Analysis Plan (SAP).
Primary and key secondary endpoints in the Study 1 SAP were pre-determined. All patients were treated twice per day over a period of 14 weeks using an oral syringe to administer the formulation. The treatment period included a two-week titration period and a 12-week maintenance period.
The initial results of Study 1 are outlined below. The randomized, double blind, placebo controlled, Phase 3 study enrolled 119 patients across sites in the United States, Canada, Europe and Australia. The median age of patients was 8 years, the mean age of patients was 9 years (range, 2-18 years) (FIG. 2).
Patients were titrated to their target dose over two weeks, and then remained at that fixed dose for 12 weeks. The mean baseline convulsive seizure frequency across the study groups was approximately 40 seizures per month. 110 (92%) patients completed the study (85% 0.8 mg/kg/day; 100% 0.2 mg/kg/day; 93% placebo). […]
The mean number of convulsive seizure free days, defined as a day for which diary data are available and no convulsive seizures have been reported, was determined for each treatment group during the Baseline and T+M Periods. […]

The test system of data set [2] is patients with Dravet syndrome. The settings on record: long-term fenfluramine treatment; cited from earlier work.

Each structure is given as a SMILES string.

On to `CCNC(C)Cc1cccc(C(F)(F)F)c1` (racemic) [Fenfluramine, 3-trifluoromethyl-N-ethylamphetamine], for which the “reduction from Baseline in non-convulsive seizures (all types), % [SD]” value in data set [1] (0.2 mg/kg/day) is 9.7% (140.46). In data set [1] (0.8 mg/kg/day), the “reduction from Baseline in non-convulsive seizures (all types), % [SD]” value is given as 59.1% (40.14). Moreover, in data set [2], the “heart valve defects monitored by echocardiography” value is “No clinically relevant defects”; the “incidence of all types of seizures” value is given as “effectively reduced the incidence of all types of seizures”; the “seizure-free condition, share of test subjects” value is reported as 66.6%.
